In patent publication US20250049841A1 (priority 2021, published 2025):
≈ marks a conversion by molar mass, not a printed value. Where “and” joins values, the source holds several entries; their conditions need not be identical. Identical values can stand only once. Like-named read-outs stand apart in the source and are kept apart here.

Legend:
[1] = test system: SARS-CoV-2 USA_WA1/2020 strain
[2] = test system: SARS-CoV-2 USA_WA1/2020 strain; remark: listed apart in the source
[3] = test system: normal, human-derived tracheal/bronchial epithelial (TBE) cells; assay: Toxicity of test compounds in the TBE tissue model (Example 1); conditions: any of the test compound concentrations
Procedure: (§1) Cell Culture: The EpiAirway™ Model consists of normal, human-derived tracheal/bronchial epithelial (TBE) cells which have been cultured to form a multi layered, highly differentiated model which closely resembles the epithelial tissue of the respiratory tract.
(§2) The TBE cells were grown on 6 mm mesh disks in transwell inserts. […] The cells have unique properties in forming layers, the apical side of which is exposed only to air and that creates a mucin layer. Upon arrival, the cell transwell inserts were immediately transferred to individual wells of a 6-well plate according to manufacturer's instructions, and 1 mL of MatTek's proprietary culture medium (AIR-100-MM) was added to the basolateral side, whereas the apical side was exposed to a humidified 5% CO2 environment. The TBE cells were cultured at 37° C. for one day before the start of the experiment. After the 24 h equilibration period, the mucin layer, secreted from the apical side of the cells, was removed by washing with 400 μL pre-warmed 30 mM HEPES buffered saline solution 3X. Culture medium was replenished following the wash steps.
(§3) Experimental design: Each 2× compound treatment (120 L) and virus (120 μL) was applied to the apical side, and 1× compound treatment only was applied to the basal side (1 mL), for a 2 h incubation. […]

[4] = test system: SARS-CoV-2 (strain USA-WA1/2020); assay: microbe, parasite or virus in culture; type: cell-based, human; conditions: Severe acute respiratory syndrome coronavirus 2, 120 h
[5] = test system: Respiratory syncytial virus (RSV-A2); conditions: for SI = CC50/EC90: RSV-A2
[6] = test system: Influenza A/California/7/2009 (H1N1); conditions: fresh drug on days 1 and 2; for Log10 CCID50 virus per 0.2 mL: H1N1, day 3
in vitro = conditions: human
Procedure: (§4) The amount of formazan is directly proportional to the number of living cells and the resulting colored solution is quantified by measuring absorbance at 450 nanometers using a multi-well spectrophotometer. Drug concentrations of 2 mg/ml and 1 mg/ml were tested in duplicate wells, and a drug concentration of 0.5 mg/ml was tested in singlet wells. On day 3 (H1N1) or day 6 (RSV), the apical side was washed one time with 400 μL pre-warmed PBS. The CCK-8 solution was added (200 L) to the apical side and incubated at 37° C. for 2 hours. The formazan (100 l) was placed into a 96-well plate and the 450 nm absorbance was recorded. Percent toxicity values were calculated as a percentage of the cell control test wells (no drug treatment) and reported as the 50% cell cytotoxic concentration (CC50) of compound (no virus). Tissues were also observed via microscopy to assess cytotoxicity.

[7] = test system: Respiratory syncytial virus (RSV-A2); assay: microbe, parasite or virus in culture; conditions: human respiratory syncytial virus, read-out: EC90 (VYR 90% effective concentration)
[8] = test system: Influenza A/California/7/2009 (H1N1); assay: microbe, parasite or virus in culture; conditions: H1N1, in Homo sapiens, read-out: EC90 (VYR 90% effective concentration)
[9] = test system: normal, human-derived tracheal/bronchial epithelial (TBE) cells
Procedure: as §1, §2, §3

[10] = test system: SARS-CoV-2 USA_WA1/2020 strain; conditions: hamster, in vivo
[11] = test system: normal, human-derived tracheal/bronchial epithelial (TBE) cells; remark: listed apart in the source
Procedure: as §4

[12] = 200 mg/kg/d b.i.d. PO, individual animals
[13] = 500 mg/kg/d b.i.d. PO, individual animals

Compound: CC(C)C(=O)OC[C@H]1O[C@@H](n2ccc(NO)nc2=O)[C@H](O)[C@@H]1O [EIDD-2801]
- effect on lung weights ([1]; 200 mg/kg/d PO): not significantly affected
- effect on weight loss (percent initial body weight) ([1]; 200 mg/kg/d PO, P<0.01 vs placebo): prevented weight loss
- effect on oropharyngeal swab virus titers ([1]; 200 mg/kg/d PO, any day post-infection): did not reduce
- effect on lung virus titers ([1]; 200 mg/kg/d PO, day 6 post-infection, P<0.0001 vs placebo): reduced lung virus titers
- effect on nasal tissue virus titers ([1]; 200 mg/kg/d PO, vs placebo): did not significantly reduce
- Oropharyngeal swab Virus Titer, Day Post-Infection 5 [1, 12]: 2.0 CCID50/mL (Log10) and <0.7 CCID50/mL (Log10) (3×) and 1.7 CCID50/mL (Log10)
- Oropharyngeal swab Virus Titer, Day Post-Infection 6 [1, 12]: <0.7 CCID50/mL (Log10)
- Virus Titer, Lung tissue, Day 6 [1, 12]: <0.7 CCID50/mL (Log10)
- reduction in lung virus titers, day 3 post-infection ([2]; 500 mg/kg/d PO): one
- effect on nasal tissue virus titers ([2]; 500 mg/kg/d PO, FIG. 21, once daily comparison): did not significantly reduce
- effect on lung weights ([2]; 500 mg/kg/d PO, FIG. 22): did not significantly reduce
- effect on nasal tissue virus titers, day 3 post-infection ([2]; 500 mg/kg/d PO, FIG. 25, twice daily comparison, P<0.01): significantly reduced
- effect on lung weights, Day 6 ([2]; 500 mg/kg/d PO, FIG. 26): significantly affected
- effect on lung virus titers, day 3 post-infection ([2]; 500 mg/kg/d PO, P<0.01 vs placebo): significantly reduced
- Virus Titer, Lung tissue, Day 6 [2, 13]: <0.7 CCID50/mL (Log10)
- Virus Titer, Nasal tissue, Day 6 [2, 13]: <0.7 CCID50/mL (Log10) (4×) and 1.7 CCID50/mL (Log10)

Compound: CO[Si](CCCN(C)[N+]([O-])=NO)(OC)OC [MAP3-NONOate, N, N-methylaminopropyl diazeniumdiolate trimethoxysilane]
- toxicity [3]: No toxicity was observed

Compound: CCC(CC)COC(=O)[C@H](C)N[P@](=O)(OC[C@H]1O[C@@](C#N)(c2ccc3c(N)ncnn23)[C@H](O)[C@@H]1O)Oc1ccccc1 [Remdesivir]
- EC90 ([4]; read-out: EC90 (Titer 1)): 0.0065 µg/mL (≈ 0.0108 µM)
- EC90 ([4]; read-out: EC90 (Titer Avg.)): 0.0065 µg/mL (≈ 0.0108 µM)

Compound: NC(=O)c1ncn([C@@H]2O[C@H](CO)[C@@H](O)[C@H]2O)n1 [Ribavirin]
- EC90 (VYR 90% effective concentration) [5]: 4.6 µg/mL (≈ 18.8 µM)
- SI = CC50/EC90 ([5]; fresh drug on days 1, 2, and 5): >19.54
- SI = CC50/EC90 ([5]; fresh drug on days 1-5): >21.7
- Log10 CCID50 virus per 0.2 mL ([6]; concentration 1 μg/ml): 6.50 Log10 CCID50 virus per 0.2 mL
- Log10 CCID50 virus per 0.2 mL ([6]; concentration 10 μg/ml): 4.00 Log10 CCID50 virus per 0.2 mL
- Log10 CCID50 virus per 0.2 mL ([6]; concentration 100 μg/ml): 2.67 Log10 CCID50 virus per 0.2 mL
- SI = CC50/EC90 ([6]; H1N1): >52.9
- CC50 (in vitro): > 100 µg/mL
- CC50 at 6 days (in vitro): > 100 µg/mL
- EC90 [7]: 5.12 µg/mL (≈ 21 µM)
- EC90 [8]: 1.89 µg/mL (≈ 7.74 µM)

Compound: berdazimer sodium
- toxicity [9]: No toxicity was observed
- adverse events ([1]; hamster, in vivo, 2 mg/kg/day): No adverse events were observed
- premature deaths [10]: no premature deaths were observed
- deaths ([2]; hamster, in vivo): two of the ten animals
- cytotoxicity, tissues observed under the microscope [11]: no overt cytotoxicity
